Assay results from patent publication US12653796B2, “Compounds for use (in particular RIPA-56) in the prevention and/or treatment of non-alcoholic fatty liver disease” (SORBONNE UNIVERSITE, priority 2019, dated 2026).

System: primary human hepatocytes
Assay: Fat depletion in primary human hepatocytes with free fatty acid-induced steatosis
Assay type: cell-based
Conditions: 20 μM, 24 h
Procedure: FIG. 7. RIPA-56 treatment induces fat depletion in primary human hepatocytes. Primary human hepatocytes were isolated from steatotic human livers of patients with NAFLD (n=5) (A-C) or from non-steatotic human livers and incubated with free fatty acids to induce steatosis or without (W/O) (n=5) (D-G), and treated with RIPA-56 (20 μM) or DMSO (vehicle) for 24 h. (A, D) Representative Oil Red-O and DAPI images; (B, E) Quantification of Oil Red-O staining normalized for the number of DAPI-stained nuclei; (C, F) Quantification of intracellular triglycerides normalized to protein content; (G) mRNA levels of CPT1A, MTTP and APOB100 were assessed by RT-qPCR, and shown relative to DMSO-treated hepatocytes. Results are shown as mean±SEM; n.s., not significant; *p<0.05; **p<0.01; scale bars, 100 μm. These findings are representative of five independent cell preparations.
FIG. 9. MLKL controls intrahepatic triglyceride content in hepatocytes. (A-D) Primary human hepatocytes were isolated from non-steatotic human livers and incubated with free fatty acids to induce steatosis, or without (W/O), and treated with necrosulfonamide (NSA) (20 μM) or DMSO (vehicle) for 24 h. (A) Representative Oil Red-O and DAPI images; (B) Quantification of Oil Red-O staining normalized for the number of DAPI-stained nuclei; (C) Quantification of intracellular triglycerides normalized to protein content. (D) mRNA levels of CPT1A, MTTP and APOB100 were assessed by RT-qPCR and shown relative to DMSO-treated hepatocytes; (E-H) AML-12 cells were knocked-out (KO) for MLKL and compared with control (CTL) cells, which underwent a similar CRISPR-Cas9 selection as KO cells; (E) Whole-cell lysates were extracted from CTL and MLKL-KO AML-12 cells and analyzed by Western blot using antibodies against MLKL, Tubulin and GAPDH; (F) Representative Oil Red-O and DAPI images; (G) Oil Red-O staining and (H) triglycerides quantification in fat-loaded cell lines. Results are shown as mean±SEM; n.s., not significant; *p<0.05; **p<0.01; ***p<0.001; scale bars, 100 μm. These experiments are representative of five independent cell preparations.
The liver fragment was initially perfused with a prewarmed (37° C.) calcium-free buffer supplemented with 5 mmol/L ethylene glycol tetra-acetic acid (Sigma) followed by perfusion with a prewarmed (37° C.) buffer containing 6 mmol/L calcium (CaCl2) and collagenase 0.05% ([…]) (Sigma). The liver fragment was then gently shaken to disperse liver cells in Hepatocyte Wash Medium (Life Technologies, Villebon-sur-Yvette, France). The resulting cell suspension was filtered through a gauze-lined funnel. Cells were then centrifuged at low speed. The supernatant, containing damaged or dead hepatocytes, non-parenchymal cells and debris were removed and pelleted hepatocytes were re-suspended in Hepatocyte Wash Medium. The count of viable cells was determined using trypan blue exclusion. Freshly isolated normal (steatosis <5%) or steatotic (>10%) hepatocytes were resuspended in Williams medium E (Life technologies) containing 10% fetal calf serum (Eurobio), penicillin (200 U/mL)-streptomycin (200 μg/mL), Fungizone (2.5 μg/mL) and insulin (0.1 U/mL) (Life Technologies). The cells were seeded in 12-, 24- and 96-well plates pre-coated with type I collagen at a density of 0.78×10^6, 0.4×10^6 and 0.5×10^5 viable cells/well, respectively, and incubated overnight at 37° C. in a 5% CO2 atmosphere. The medium was replaced with fresh complete hepatocyte medium supplemented with 1 μmol/L hydrocortisone hemisuccinate (Laboratoires SERB, Paris, France) and hepatocytes were maintained in this medium. To induce steatosis in normal hepatocytes, PHH were incubated with free fatty acid (FFA) mixtures of oleic acid and palmitic acid in a molar ratio 2:1 (500:250 μmol/L), respectively, and with 1% fatty-acid-free BSA for 48 hours.
Total RNA was purified from liver tissue using TRIzol reagent (ThermoFisher) and a RNeasy Mini kit (Qiagen, Courtaboeuf, France). […]

In the case of `CCC(C)(C)C(=O)N(O)Cc1ccccc1` [RIPA-56, N-Benzyl-N-hydroxy-2,2-dimethylbutanamide], the “intracellular lipid droplets (Oil Red-O)” value (FFA-induced steatosis) is reported as “significant decrease”, the intracellular triglyceride content (FFA-induced steatosis) is reported as “significant decrease” and the “CPT1A, APOB100 and MTTP expression (mRNA)” value (RT-qPCR) is reported as “up-regulation”.
